US20190083407A1, “CRYSTALLIZATION METHOD AND BIOAVAILABILITY” (priority 2015, published 2019)
Like-named read-outs stand apart in the source and are kept apart here.

Assays:
[1] = Aqueous solubility at room temperature; conditions: for Aqueous solubility, mMol/L (complex): as complex
[2] = 72 hr dog study; cited from earlier work
[3] = FDA Summary Basis of Approval; cited from earlier work
[4] = cited from earlier work; for Mortality: solutions in capsules
[5] = Rat PK study: plasma concentrations of zoledronic acid from pure zoledronic acid and complexes delivered IV, oral gavage and ID; format: in vivo, Sprague-Dawley Rats
Description: These studies were conducted on rats and dogs as they are suitable animal models for zoledronic acid. This can be attributed to the fact that both animals have historically been used in the safety evaluation and PK screening studies and are recommended by appropriate regulatory agencies. […] Pure zoledronic acid and zoledronic acid complexes prepared by the methods in this invention were delivered to the rats and dogs through IV or oral routes. Additional tests included ID administration in rats and administration of enteric coated capsules in dogs. All compounds delivered were well tolerated by the animals with no adverse events or physical abnormalities noticed. […] USA. Some animals have surgical catheters (jugular vein and intraduodenum) were implanted to the animals prior to the studies. […] Surgical catheters (jugular vein) were implanted prior to the studies. […] Routes of Rat Dosing: Zoledronic acid and its complex formulations were administered through IV, oral and ID. […] The dose of each rat was calculated on a per rat basis (not on an average weight of all the rats in the lot). • ii. Oral gavage administration: solid suspensions were administered. The dose of each rat was calculated on a per rat basis (not on an average weight of all the rats in the lot). […] Duodenal cannula administration: solid suspensions were administered. The dose of each rat was calculated on a per rat basis (not on an average weight of all the rats in the lot). […] Groups: Two major groups of animals were selected for the study. • Group 1 consists of rat studies. […] Group I (IV Administration): Group Members, Designated IV Doses are Listed Below: [table] Group II (oral gavage): Group designations and oral doses are listed below: […] Group III (ID Administration): Group Designations and Oral Doses are Listed Below: [table] Rat blood sample collection, handling and analysis: […] Samples were thawed on the day of analysis and the amount of zoledronic acid in the samples was quantified by analyzed by LC/MS/MS method. Rat study: […]

In the case of `NCCCCC(N)C(=O)O.O.O=P(O)(O)C(O)(Cn1ccnc1)P(=O)(O)O` [ZA: DL-Lysine monohydrate], the “Aqueous solubility, Conc.” value [1] is reported as 13.9 mg/mL and the “Aqueous solubility, mMol/L (complex)” value [1] is reported as 31.86 mmol/L.

For `NCCCCC(N)C(=O)O.O.O.O=P(O)(O)C(O)(Cn1ccnc1)P(=O)(O)O` [ZA: L-Lysine dihydrate], the “Aqueous solubility, Conc.” value [1] was 8.22 mg/mL and the “Aqueous solubility, mMol/L (complex)” value [1] was 18.09 mmol/L.

For `O=P(O)(O)C(O)(Cn1ccnc1)P(=O)(O)O` [Zoledronic acid, (1-hydroxy-2-imidazol-1-yl-1-phosphono-ethyl)phosphonic acid], the AUC [2] is listed as 2217 ng·h/mL, the Oral bioavailability [3] is listed as “less than 1%” and the “Mortality (dogs)” value ([4]; 10 mg/kg administered directly to the stomach) is listed as “⅓”. For the same compound, the “Mortality (dogs)” value ([4]; 25 mg/kg, same formulation) was 3/3, the “AUC 0-24 hr” value ([4]; dogs, 10 mg/kg administered directly to the stomach) was 1254 ng·h/mL and the “AUC 0-24” value ([4]; dogs, 25 mg/kg, same formulation) was 7319 ng·h/mL. For the same compound, the Mortality ([4]; dogs, 10 mg/kg/day, one formulation) was 30% and the Mortality ([4]; dogs, another formulation, 25 mg/Kg) was 100%.

For `O=P([O-])(O)C(O)(Cn1ccnc1)P(=O)([O-])O.[Na+].[Na+]` [disodium zoledronate salt], the AUC [2] is listed as 4073 ng·h/mL.

With “Zoledronic, nicotinamide, and water complex” the “Average plasma concentration of 3 rats” value ([5]; ID 5 mg/kg zoledronic acid equivalent, PEG 400, 8 hour) was 0.00 ng/mL, the “Average plasma concentration of 3 rats” value ([5]; ID 5 mg/kg zoledronic acid equivalent, PEG 400, 24 hour) was 0.00 ng/mL and the “Average plasma concentration of 3 rats” value ([5]; PO 5 mg/kg zoledronic acid equivalent, PEG 400, 24 hour) was 0.00 ng/mL.
